Here are results for two molecules from patent US10463664B2, “Inhibitors of HSV nucleotidyl transferases and uses therefor” (Saint Louis University, priority 2013, dated 2019).

The structures appear in SMILES notation.

The test system of one assay is HSV-2. The assay can be described thus: Time-of-addition experiment, HSV-2 in Vero cells. Type of assay: cell-based, herpes simplex virus 2. The following applies: 10 μM. The procedure:
The inventors next varied the time post-infection that the inhibitors were added to begin defining the stage(s) of viral replication targeted by the inhibitors. […] The cells were incubated until 24 hours post-infection and then infectious viral titers were determined by plaque assay and viral DNA production was determined by quantitative PCR (FIG. 5).

The test system of the next assay is HSV-1. The assay can be described thus: Pre-incubation of viral inoculum with compound (virus infectivity). Type of assay: cell-based, herpes simplex virus 1. Here is the method: Tests were carried out to determine if the early event inhibited by compound #46 was a pre- or post-entry event. A high titer HSV-1 stock was pre-incubated with compound #46 at 50 μM or was incubated with an equivalent amount of DMSO-containing medium for 1 hour at 37° C. Then the viral stocks with compound or DMSO were diluted such that Vero cells were infected at a moi of 0.1 as usual. […] A standard inhibition assay using compound #46 at 50 μM was conducted in parallel as a positive control, and viral titers were determined by plaque assay at 24 hours post-infection. The standard conditions of infection at 50 μM caused a 5.5 log10 suppression of HSV-1 replication relative to the DMSO pre-treatment sample.

For a further assay, the target named is T1, human RNaseH1 (Homo sapiens, UniProt O60930).
T1 construct: hexahistidine; made in house; host or cells: E. coli
T1 sequence (O60930 1-286): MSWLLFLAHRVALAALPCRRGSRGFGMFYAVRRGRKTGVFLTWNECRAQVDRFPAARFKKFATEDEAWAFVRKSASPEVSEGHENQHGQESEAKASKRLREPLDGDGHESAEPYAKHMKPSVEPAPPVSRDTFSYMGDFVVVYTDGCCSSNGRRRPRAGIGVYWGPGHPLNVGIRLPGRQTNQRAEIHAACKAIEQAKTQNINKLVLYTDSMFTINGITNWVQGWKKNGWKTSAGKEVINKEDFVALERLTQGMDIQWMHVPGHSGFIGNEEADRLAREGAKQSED
The following applies: Hu et al., 2013; cited from earlier work.

Consider `Nc1nc2c(ncn2COCCO)c(=O)[nH]1` [ACV, Acyclovir, reference compound], for which, in the assay with HSV-2, the “Delay of addition with no effect on inhibition of DNA replication or viral accumulation” value is reported as at most 5 hours post-infection and the “Time of addition at which compound becomes essentially ineffective” value worked out at 12 hours post-infection.
As to `CC(C)c1ccc(O)c(=O)c(O)c1` [Compound 46, Beta-thujaplicinol], the “Suppression of HSV-1 replication, standard conditions of infection” value in the assay on HSV-1 (50 μM throughout, relative to DMSO pre-treatment sample) was 5.5 log10. In addition, the “Effect of pre-incubation on virions / virus entry (in words)” value with HSV-1 (pre-incubation 50 μM, 1 hour, 37° C.) is on record as “not directly toxic to virions”. Besides, at human RNaseH1, the “Effect on RNase H1 (in words)” value is “no effect”.
